According to ChEMBL document CHEMBL4052658, “BACE1 inhibitory activity and molecular docking analysis of meroterpenoids from Sargassum serratifolium” (Bioorg Med Chem, 2017):
Active and inactive are the calls of the source. The rule behind the calls is not given here.

Legend:
Acetylcholinesterase = Acetylcholinesterase (Electrophorus electricus, UniProt O42275); assay: Inhibition of electric eel AChE using acetylthiocholine iodide as substrate incubated for 15 mins by spectrophotometric analysis
Chain of Acetylcholinesterase (O42275 whole entry): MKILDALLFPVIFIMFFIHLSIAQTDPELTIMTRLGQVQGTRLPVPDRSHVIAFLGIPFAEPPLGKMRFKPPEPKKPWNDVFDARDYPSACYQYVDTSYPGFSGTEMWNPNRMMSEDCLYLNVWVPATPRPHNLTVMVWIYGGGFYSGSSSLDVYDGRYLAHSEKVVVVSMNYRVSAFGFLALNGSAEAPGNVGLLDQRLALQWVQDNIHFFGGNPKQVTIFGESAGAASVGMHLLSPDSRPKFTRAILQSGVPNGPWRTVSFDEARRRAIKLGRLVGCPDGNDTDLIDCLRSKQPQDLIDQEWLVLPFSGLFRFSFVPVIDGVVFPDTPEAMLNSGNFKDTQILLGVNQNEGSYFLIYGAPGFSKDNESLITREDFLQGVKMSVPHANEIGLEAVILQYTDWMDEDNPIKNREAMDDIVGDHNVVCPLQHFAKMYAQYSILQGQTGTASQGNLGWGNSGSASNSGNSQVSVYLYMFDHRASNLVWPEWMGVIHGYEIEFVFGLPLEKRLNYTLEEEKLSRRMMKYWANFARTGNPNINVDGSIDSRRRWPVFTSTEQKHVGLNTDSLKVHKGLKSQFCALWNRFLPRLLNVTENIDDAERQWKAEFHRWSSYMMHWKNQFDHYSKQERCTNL

Cholinesterase = Cholinesterase (Equus caballus, UniProt P81908); assay: Inhibition of equine serum BChE using butyrylthiocholine chloride as substrate incubated for 15 mins by spectrophotometric analysis
Chain of Cholinesterase (P81908 whole entry): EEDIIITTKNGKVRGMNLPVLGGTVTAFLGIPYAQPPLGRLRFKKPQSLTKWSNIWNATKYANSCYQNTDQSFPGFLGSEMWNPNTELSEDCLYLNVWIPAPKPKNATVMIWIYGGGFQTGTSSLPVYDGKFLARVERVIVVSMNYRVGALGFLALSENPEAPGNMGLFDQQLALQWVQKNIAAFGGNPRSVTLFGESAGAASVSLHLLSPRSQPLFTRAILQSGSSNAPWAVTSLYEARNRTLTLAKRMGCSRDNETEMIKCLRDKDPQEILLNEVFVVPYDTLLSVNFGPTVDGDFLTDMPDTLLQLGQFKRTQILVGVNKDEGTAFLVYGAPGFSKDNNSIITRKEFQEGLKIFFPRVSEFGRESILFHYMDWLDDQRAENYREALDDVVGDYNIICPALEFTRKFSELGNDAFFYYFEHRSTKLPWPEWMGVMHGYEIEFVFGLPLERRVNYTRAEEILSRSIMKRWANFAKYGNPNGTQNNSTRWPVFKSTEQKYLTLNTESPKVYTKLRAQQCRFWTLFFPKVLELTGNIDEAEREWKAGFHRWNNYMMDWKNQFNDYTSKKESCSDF

Beta-secretase 1 [1] = target: T1, Beta-secretase 1 (Homo sapiens, UniProt P56817); assay: Mixed type inhibition of recombinant human BACE1 using Rh-EVNLDAEFK-Quencher as substrate after 60 mins by Dixon plot analysis
T1 sequence (P56817 whole entry): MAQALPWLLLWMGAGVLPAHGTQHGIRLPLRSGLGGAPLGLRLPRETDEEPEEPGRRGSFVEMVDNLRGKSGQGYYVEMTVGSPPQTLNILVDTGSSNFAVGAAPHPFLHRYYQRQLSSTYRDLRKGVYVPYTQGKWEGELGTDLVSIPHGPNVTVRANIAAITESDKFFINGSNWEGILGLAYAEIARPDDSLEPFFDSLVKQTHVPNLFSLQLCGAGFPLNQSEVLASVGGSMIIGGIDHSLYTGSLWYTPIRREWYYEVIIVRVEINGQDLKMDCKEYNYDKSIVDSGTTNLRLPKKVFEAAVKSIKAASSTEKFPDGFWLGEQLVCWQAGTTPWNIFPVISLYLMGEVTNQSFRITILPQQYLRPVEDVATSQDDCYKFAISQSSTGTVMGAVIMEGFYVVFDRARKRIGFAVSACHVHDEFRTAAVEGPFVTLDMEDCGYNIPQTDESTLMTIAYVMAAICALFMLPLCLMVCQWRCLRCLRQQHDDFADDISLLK

Beta-secretase 1 [2] = target: T1, Beta-secretase 1; assay: Inhibition of recombinant human BACE1 using Rh-EVNLDAEFK-Quencher as substrate after 60 mins by FRET assay
Beta-secretase 1 [3] = target: T1, Beta-secretase 1; assay: Noncompetitive inhibition of recombinant human BACE1 using Rh-EVNLDAEFK-Quencher as substrate after 60 mins by Lineweaver-Burk plot analysis
Beta-secretase 1 [4] = target: T1, Beta-secretase 1; assay: Noncompetitive inhibition of recombinant human BACE1 using Rh-EVNLDAEFK-Quencher as substrate after 60 mins by Dixon plot analysis

| Compound | IC50 (Acetylcholinesterase) | IC50 (Cholinesterase) | Ki (Beta-secretase 1 [1]) | IC50 (Beta-secretase 1 [2]) | inhibition (Beta-secretase 1 [3]) | Ki (Beta-secretase 1 [4]) |
| --- | --- | --- | --- | --- | --- | --- |
| COc1ccc2cc3[n+](cc2c1OC)CCc1cc2c(cc1-3)OCO2 [BERBERINE] | 1.6 µM |  |  |  |  |  |
| CC(C)=CCC/C(=C/CC/C(C)=C/CC/C(C)=C/CC1=CC(=O)C=C(C)C1=O)C(=O)O | 69.3 µM | 10.5 µM | 4 µM |  |  |  |
| CC(C)=CCC/C(=C/CC/C(C)=C/CC/C(C)=C/Cc1cc(O)cc(C)c1O)C(=O)O [SARGAHYDROQUINOIC ACID] | 124 µM | 15.2 µM | 1.6 µM | 4.4 µM |  |  |
| CC(C)=CCC/C(=C/CC/C(C)=C/CCC1(C)C=Cc2cc(O)cc(C)c2O1)C(=O)O (stereo not drawn) | 97.3 µM | 9.4 µM |  | 7 µM | Active | 2.9 µM |
